As usually defined, the half-life is the time needed for the level to fall by half in the phase considered. As usually defined, the MRT is the average time that molecules of a dose stay in the body. What is called IC50 is the concentration needed to halve the response being measured. A high value points to a need for much substance. One may read the solubility as how much of the substance goes into solution per volume.

The nature of series [1]: Pharmacokinetic assay in SD rats. Type of series: in vivo. Conditions: PO 60 mg/kg; for AUC(0-inf) / Cmax / half-life / MRT: both sexes, Sprague-Dawley, rat, plasma; for AUC(0-inf): read-out: Area under the curve AUC0-∞; for Cmax: read-out: Blood concentration Cmax; for half-life: read-out: Half life T½ (converted); for MRT: read-out: Residence time MRT. As to the method: SD rats were taken as the test animals, and the compounds of the present invention were administrated to the rats by intravenous injection or gavage. Then the drug concentrations in the plasma at different times were measured using LC/MS/MS method to study the pharmacokinetic characteristics of the compounds of the present invention in rats.
Six healthy adult Sprague Dawley (SD) male rats were purchased from Vital River Laboratory Animal Technology Co., Ltd.
76.32 mg of compound 1m was weighed and dissolved in 12.72 mL of 0.5% sodium carboxymethyl cellulose (CMC-Na), the mixture was mixed by vortex for 1 minute until the compound was completely suspended, and the final prepared concentration was 6 mg/mL;
76.61 mg of compound 1 was weighed and dissolved in 12.768 mL of 0.5% sodium carboxymethyl cellulose (CMC-Na), the mixture was mixed by vortex for 1 minute until the compound was completely suspended, and the final prepared concentration was 6 mg/mL.
Compounds 2 to 4 were weighed and dissolved in an appropriate amount of 0.5% sodium carboxymethyl cellulose (CMC-Na), the mixture was mixed by vortex for 1 minute until the compound was completely suspended, and the final prepared concentration was 6 mg/mL.
Six healthy adult SD rats, half male and half female, were divided into 2 groups, 3 rats in each group. The rats were fasted overnight, and then intragastrically administered (po) with the compound 1m or compounds 1 to 4 of the present invention at a dose of 60 mg/kg.
About 0.25 mL of blood was collected from the jugular vein before the administration and 0.25 hours, 0.5 hours, 1 hour, 2 hours, 4 hours, 6 hours, 8 hours and 24 hours after the administration, and heparin sodium was used for anticoagulation. The blood samples were placed on ice after collection, and then centrifuged to separate the plasma (centrifugation conditions: 7000 rpm, 5 minutes). The collected plasma was stored below −70° C. until analysis.
300 μL of methanol (comprising internal standard working solution, Loratadine 800 ng/mL) was added to 100 μL of plasma sample, then the mixture was mixed by vortex for 5 minutes, then the obtained mixture was centrifuged at 10,000 rpm for 10 minutes, and 1 μL of the resulting mixture was taken and subjected to LC-MS/MS analysis.

The next series concerns the target T1, human AT2R (Homo sapiens, UniProt P50052).
T1 construct: Tb (terbium) label on the receptor; expressed in transfected cells
T1 sequence (P50052 1-363): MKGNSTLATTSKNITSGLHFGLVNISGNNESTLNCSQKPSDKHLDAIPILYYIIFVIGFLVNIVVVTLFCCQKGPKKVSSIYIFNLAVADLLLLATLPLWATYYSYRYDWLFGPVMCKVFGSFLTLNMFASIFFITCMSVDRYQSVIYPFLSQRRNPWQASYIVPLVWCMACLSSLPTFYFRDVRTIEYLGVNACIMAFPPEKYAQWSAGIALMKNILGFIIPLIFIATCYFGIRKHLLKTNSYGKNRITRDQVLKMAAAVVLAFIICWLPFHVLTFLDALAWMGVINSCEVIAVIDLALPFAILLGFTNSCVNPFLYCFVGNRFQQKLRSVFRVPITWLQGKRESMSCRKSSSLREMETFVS
Nature of the series: Antagonistic activity against human AT2R ligand binding (Tag-lite HTRF). The following applies: Tb-labeled-AT2R cells, red agonist fluorescent ligand, 1 hour at 25° C. The source says: Test Example 1 Test of the antagonistic activity of the compounds of the present invention against human AT2R ligand binding.
Angiotensin II Type-2 receptor (ATR) is involved in neuronal differentiation and regeneration, cell proliferation and angiogenesis, and maintenance of bone mass. ATR inhibitors can be used for treating pain and abnormal neuroregenerative diseases, inhibiting the proliferation of tumor cells and increasing bone mass. In the following methods, the degree of antagonism of the compounds of the present invention against AT2R was studied through AT2 ligand binding assay.
According to standard methods, test compounds (compound 1m and compounds 1-4) were respectively dissolved in dimethyl sulfoxide to be prepared into stock solutions of 10 mM.
(2) The test compound was subjected to 5-fold dilution with a total of 10 concentration gradients;
(3) The diluted compound in step (2) was transferred to a working plate (3657, Corning) at 160 nL/well, 200 g at room temperature for 1 minute; […]
(11) The reaction plate was centrifuged at 200 g for 1 minute at room temperature, then kept still at room temperature 25° C. for 1 hour, and centrifuged at 200 g for 1 minute at room temperature. Data were collected using Envision HTRF microplate reader, and IC50 was calculated using nonlinear fitting formula.

The next series in a line: Solubility test. Type of series: physicochemical. As to the method:
According to the conventional method for solubility assay, the solubility of the compounds of the present invention in the following four different systems was tested: phosphate salt buffer PBS (pH7.4), methanol, 0.1% HCl and water.

[2] abbreviates: methanol, organic solvent or mixture.

Values after ≈ are worked out from the molar mass of the structure shown. Where only a bound is given, the exact number is not on record here.

In the case of `COc1ccc(COc2c(OC)ccc3c2C[C@@H](C(=O)[O-])N(c2nc4ccc(F)cc4o2)C3)nc1.[Na+]` [Compound 1], in series [1] (versus free acid compound 1m), the “Increase of area under the curve compared with compound 1m” value was 14 times and the “Increase of plasma concentration compared with compound 1m” value was “more than 50 times”. In series [1], the AUC(0-inf) was determined as 328 ± 53.2 µg·h/mL, the Cmax came to 127 ± 12.7 µg/mL, the half-life is 3.57 ± 0.85 h and the MRT was determined as 2.59 ± 0.41 h. Also, the IC50 on human AT2R turned out to be 6 nM. Besides, the solubility in “Solubility test” (aqueous buffer, PBS (pH 7.4)) came to 8690 µg/mL. The solubility in “Solubility test” (setting [2]) was above 10000 µg/mL. Besides, the solubility in “Solubility test” (water) was 6410 µg/mL.

Regarding `COc1ccc(COc2c(OC)ccc3c2C[C@@H](C(=O)O)N(c2nc4ccc(F)cc4o2)C3)nc1` [Compound 1m], in series [1], the AUC(0-inf) was determined as 22.2 ± 9.1 µg·h/mL, the Cmax came to 2.4 ± 0.53 µg/mL, the half-life was 3.73 ± 1.25 h and the MRT amounted to 6.13 ± 1.13 h. The concentration in solution in the series “Solubility test” (aqueous buffer, PBS (pH 7.4)) (solubility) was 150 µg/mL (≈ 313 µM). For the same compound, the solubility in “Solubility test” (setting [2]) is 340 µg/mL (≈ 709 µM). In the series “Solubility test” (water), this compound returned a solubility of 30 µg/mL (≈ 62.6 µM).

The record behind these values is patent US12606551B2, “Salt of tetrahydroisoquinoline derivative, preparation method therefor, and medical use thereof” (ZHEJIANG HISUN PHARMACEUTICAL CO., LTD., priority 2020, dated 2026).
